Data on 10 compounds can be found in PubChem BioAssay (NCI).

Holding throughout (experiment): NCI anticancer screen, dose series, 48 h
For experiment [1], the system named is KM12 colon.
The subject of experiment [2] is OVCAR-8 ovarian.
For experiment [3], the system named is SF-539 CNS.
Experiment [4] relates to HCC-2998 colon.
The test system of experiment [5] is OVCAR-4 ovarian.
For experiment [6], the system named is SR leukemia.
Experiment [7] deals with UACC-62 melanoma.
For experiment [8], the system named is IGROV1 ovarian.
Experiment [9] concerns UACC-257 melanoma.
Experiment [10] deals with HS 578T breast.

The structures appear in SMILES notation.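 Interpolation was linear, between the two tested concentrations surrounding the appropriate level; five concentrations were tested over 48 hours in 96-well plates. At the GI50, growth is halved. TGI is the concentration that stops growth completely.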

Regarding `CN(C)N=Nc1ccc(S(N)(=O)=O)cc1`, the TGI in experiment [1], in experiment [2], in experiment [3], in experiment [4], in experiment [5] and in experiment [6] was above 100 µM each time. Besides, the TGI in experiment [7], in experiment [8] and in experiment [9] was above 100 µM each time.

With `CC1=C(C(=O)Nc2ccc(Cl)c(Cl)c2)C(c2cccc(Cl)c2)NC(=S)N1` (centres undefined), the GI50 in [1] is 11.6 µM; in experiment [2] it was 12.4 µM; in experiment [5], 13.4 µM; in experiment [6], 17.1 µM; in experiment [7] it was 8.1 µM; in experiment [8] it was 8.83 µM. The TGI was 37.6 µM in experiment [1]; 31.7 µM in experiment [2]; 42.5 µM in [5]; above 50 µM in experiment [6]; 18.1 µM in experiment [7]; 35 µM in [8].

With `O=C(C(=CN1CCN(C(=O)c2ccco2)C1=S)C(=O)c1ccccc1)c1ccccc1`, the GI50 in experiment [1] is 2.31 µM; in [2] it was 16.2 µM; in [5] it was 16.1 µM; in experiment [6], 1.28 µM; in experiment [7], 6.93 µM; in [8], 5.58 µM. Further, the GI50 in experiment [9] is 11.7 µM. Moreover, the TGI in experiment [1] worked out at 11.5 µM; in experiment [2], 41.4 µM; in experiment [5] it was 42.8 µM; in [6], 6.72 µM; in experiment [7] it was 18.3 µM; in experiment [8] it was 40.9 µM. For the same compound, the TGI in experiment [9] is 21.4 µM.

In the case of `CSc1nnc(C(C#N)C#N)nn1`, the TGI in experiment [1], in [2], in experiment [3], in experiment [4], in [5] and in experiment [6] was above 100 µM in each case. For the same compound, the TGI in experiment [7], in [8] and in experiment [9] was above 100 µM throughout.

Regarding `COc1ccc(-c2[nH]ncc2Nc2cc(OC)c(OC)c(OC)c2)cc1`, the GI50 in experiment [1] was 0.63 µM; in experiment [2], 6.36 µM; in experiment [4] it was 2.17 µM; in experiment [5], 5.01 µM; in [10] it was 1.3 µM; in experiment [6] it was 0.36 µM. In addition, the GI50 in experiment [7] is 0.704 µM; in [8], 2.51 µM; in experiment [9], 34 µM. For the same compound, the TGI is 22.7 µM in experiment [1]; above 100 µM in experiment [2]; 37.9 µM in experiment [4]; above 100 µM in [5]; 4.65 µM in [10]; above 100 µM in experiment [6]. The TGI is 69.8 µM in [7], above 100 µM in experiment [8] and above 100 µM in [9].

With `CSc1nc(SC)c2c(C)cn(COCCOC(=O)c3ccccc3)c2n1`, the TGI in [1], in experiment [2], in experiment [3], in [4], in experiment [5] and in experiment [10] was above 100 µM each time. Moreover, the TGI in experiment [6], in [7] and in [8] was above 100 µM throughout.

Turning to `N#CC1=C(N)OC2=C(CCOc3c2ccc2ccccc32)C1c1ccc(Br)cc1` (centres undefined), the GI50 in [1] is 14.6 µM; in experiment [2], 77.5 µM; in experiment [3], above 100 µM; in experiment [4], 22.1 µM; in experiment [5], 27.1 µM; in experiment [6], 17 µM. The GI50 in [7] is 48.1 µM. Further, the TGI was 34.3 µM in experiment [1]; above 100 µM in experiment [2]; above 100 µM in experiment [3]; 56.9 µM in experiment [4]; above 100 µM in [5]; 57.8 µM in experiment [6]. The same compound registered a TGI in experiment [7] above 100 µM.

On to `C(=N\Nc1ccc2ccccc2n1)/c1ccccn1`, for which the GI50 in experiment [1] was 0.458 µM; in experiment [2], 0.463 µM; in [3] it was 0.362 µM; in experiment [4], 0.307 µM; in [5], 0.363 µM; in [10], 2.36 µM. The GI50 in experiment [6] is 0.328 µM; in experiment [7], 0.877 µM; in experiment [8], 0.388 µM. The TGI in [1] is 16.2 µM; in experiment [2] it was above 100 µM; in experiment [3], 6.83 µM; in [4] it was 1.14 µM; in experiment [5], above 100 µM; in [10], above 52.9 µM. Besides, the TGI in experiment [7] came to 5.54 µM; in [8], 8.66 µM.

With `Fc1ccc(Nc2nc(Nc3ccc(-c4nc5ccccc5[nH]4)cc3)c3cn[nH]c3n2)cc1`, the GI50 is 1.64 µM in experiment [1]; 2.37 µM in experiment [2]; 1.77 µM in [3]; 1.57 µM in experiment [4]; 1.6 µM in [5]; 2.12 µM in experiment [10]. Moreover, the GI50 in [6] is 2.22 µM; in [8], 1.75 µM; in experiment [9] it was 2 µM. The TGI in experiment [1] was 3.48 µM; in experiment [2] it was 5.37 µM; in [3], 3.48 µM; in experiment [4], 3.05 µM; in experiment [5], 3.6 µM; in experiment [10], 5.35 µM. Also, the TGI in experiment [6] was determined as 5.9 µM; in experiment [8] it was 3.84 µM; in [9], 4.37 µM.

On to `NS(=O)(=O)c1ccc(N=Nc2c[nH]c(=O)c(O)c2)cc1`, for which the TGI in experiment [1], in [2], in experiment [3], in experiment [5], in [10] and in experiment [6] was above 100 µM each time. Also, the TGI in experiment [7], in [8] and in experiment [9] was above 100 µM each time.
